Reference: patent publication US20100009920A1, “TTK AS TUMOR MARKER AND THERAPEUTIC TARGET FOR LUNG CANCER” (priority 2006, published 2010)
Entries after “also recorded” stand apart in the source; their conditions may differ. Each block holds one compound with its values, some of them ahead of it.

Key:
TTK [1] = assay: Semiquantitative RT-PCR of TTK expression after transfection of siRNA-expression plasmids; format: cell-based, human; settings: LC319 and A549 cells, versus control siRNAs (LUC, SCR)
Experimental: Total RNA was extracted from cultured cells and clinical tissues using Trizol reagent (Life Technologies, Inc.) according to the manufacturer's protocol. Extracted RNAs and normal human tissue poly(A) RNAs were treated with DNase I (Nippon Gene) and were reverse-transcribed using oligo(dT)20 primer and SuperScript II reverse transcriptase (Invitrogen). Semiquantitative RT-PCR experiments were carried out with the following synthesized gene-specific primers or with beta-actin (ACTB)-specific primers as an internal control: TTK,
A vector-based RNA interference (RNAi) system, psiH1BX3.0, had previously established to direct the synthesis of siRNAs in mammalian cells (Suzuki et al., 2003, 2005; Kato et al, 2005; Furukawa et al, 2005). 10 micro-g of siRNA-expression vector were transfected into NSCLC cell lines LC319 and A549 both of which over-expressed TTK endogenously, using 30 micro-1 of Lipofectamine 2000 (Invitrogen). The transfected cells were cultured for five days in the presence of appropriate concentrations of geneticin (G418), after which cell numbers and viability were measured by Giemsa staining and triplicate MTT assays. […]

LC319 and A549 cells = assay: MTT and colony-formation assays after transfection of siRNA-expression plasmids; format: cell-based, human
Experimental: A vector-based RNA interference (RNAi) system, psiH1BX3.0, had previously established to direct the synthesis of siRNAs in mammalian cells (Suzuki et al., 2003, 2005; Kato et al, 2005; Furukawa et al, 2005). 10 micro-g of siRNA-expression vector were transfected into NSCLC cell lines LC319 and A549 both of which over-expressed TTK endogenously, using 30 micro-1 of Lipofectamine 2000 (Invitrogen). The transfected cells were cultured for five days in the presence of appropriate concentrations of geneticin (G418), after which cell numbers and viability were measured by Giemsa staining and triplicate MTT assays. The target sequences of the synthetic oligonucleotides for RNAi were as follows: control 1 (Luciferase: Photinus pyralis luciferase gene), 5′-CGTACGCGGAATACTTCGA-3′ (SEQ ID NO: 9); control 2 (Scramble: chloroplast Euglena gracilis gene coding for 5S and 16S rRNAs),

A549 cells [2] = assay: Microscopic observation of cell morphology (phase contrast images); format: cell-based, human; settings: non-treated cells as control
Experimental: (§1) The oligo-siRNAs (Dharmacon, Inc., Lafayette, Colo.) ([…]) were transfected into appropriate lung-cancer cell lines using 30 micro-1 of Lipofectamine 2000 (Invitrogen, Carlsbad, Calif.) following the manufacturer's protocol. The ribonucleotide sequences corresponding to following sequences were used as the oligo-siRNA.
The endogenous association between TTK and EGFR in lung cancer cells was also investigated by immunoprecipitaion experiment using extracts from A549 cells, and the interaction between these two proteins regardless the EGF-stimulation was detected (FIG. 4b). To further examine the relevance of TTK to EGFR signaling, TTK or EGFR function in A549 cells were suppressed and cell morphology was microscopically observed.

[3] = system: catalytically-active recombinant GST-tagged human EGFR (active-rhEGFR); assay: In vitro kinase assay, autophosphorylation of active-rhEGFR (western blot with anti-phospho-tyrosine antibodies); format: biochemical; settings: in the presence of ATP, no recombinant TTK
TTK [4] = assay: In vitro kinase assay, phosphorylation of active-rhEGFR by recombinant TTK; format: biochemical, human; settings: active-rhEGFR pre-treated with inhibitor, recombinant TTK present
Excerpt: The full-length cDNA of TTK was subcloned into pFastBac HT vector. The recombinant shuttle vector was transformed into the baculovirus genome (bacmid DNA) in DH10Bac competent cells (Invitrogen) by using Tn7 site-specific transposition according to the minufacture's instructions for the Bac-to-Bac expression system (Invitrogen). The recombinant bacmid DNA was isolated, purified, transfected into Sf9 cells (Invitrogen) (recombinant baculovirus), and used for next infection. Log-phase Sf-9 cells were infected with recombinant baculovirus at a multiplicity of infection (MOI) of 1, and then infected Sf-9 cells were grown in suspension at 27° C. for 72 hours. Extracts of Sf-9 cells were collected and the His fusion proteins were purified using HiTrap HP column (GE Healthcare Bio-sciences) using standard protocols. […] TTK-KD was cloned into pGEX6T vector (GE Healthcare Bio-sciences). GST fusion protein was expressed in E. coli stain BL21 and purified by Glutathione Sepharose 4B (GE Healthcare Bio-sciences) using standard protocols. […]
The EGFR tyrosine phosphorylation sites were further evaluated by TTK using GST-tagged proteins containing various cytoplasmic region of EGFR as substrates (EGFR-DEL1, −DEL2, and −DEL3; FIG. 4e). […]

HEK293 cells [5] = assay: MTT assay of TTK- or mock-stable transfectants of HEK293 transfected with RNAi-EGFR; format: cell-based
Experimental: as §1
TTK-expressing stable transfectants were established according to a standard protocol. Using FuGENE 6 Transfection Reagent (Roche Diagnostics), we transfected HEK293 and NIH3T3 cells with plasmids expressing TTK (pCAGGS-n3FH-TTK) or mock plasmids (pCAGGS-n3FH). Transfected cells were cultured in DMEM containing 10% FCS and G418, then individual colonies were trypsinized and screened for stable transfectants by a limiting-dilution assay. Expression of TTK was determined in each clone by RT-PCR, western blotting, and immunostaining. HEK293 or NIH3T3 transfectants that stably expressed TTK were seeded onto 6-well plates (5×10^4 cells/well), and maintained in medium containing 10% FCS and 0.4 mg/ml G418 for 7 days. At each time point, cell proliferation was evaluated by the MTT assay using Cell Counting Kits (WAKO). All experiments were done in triplicate.

HEK293 cells [6] = assay: Matrigel invasion assay of TTK- or mock-stable transfectants of HEK293 transfected with RNAi-EGFR; format: cell-based
A549 cells [7] = assay: MTT assay of A549 cells treated with cell-permeable 11R-EGFR peptides; format: cell-based, human; settings: A549 cells, 2.5, 5 and 7.5 micro-mol/L, 5 days
Experimental: 17˜31 amino acid peptide sequences corresponding to a part of EGFR protein that contained possible TTK-interacting region were covalently linked at its NH2 terminus to a membrane transducing 11 poly-arginine sequence (Hayama, S, et al. Cancer Res. 66, 10339-48 (2006), Futaki S, et al. J Biol. Chem. 276, 5836-5840 (2001)). Three cell-permeable peptides were synthesized:
Peptides were purified by preparative reverse-phase high-pressure liquid chromatography. A549 cells were incubated with the 11R peptides at the concentration of 2.5, 5, and 7.5 micro-mol/L for 5 days. The medium was exchanged at every 48 hours at the appropriate concentrations of each peptide and the viability of cells was evaluated by MTT assay at 5 days after the treatment.

Compound: 5′-ACAGTGTTCCGCTAAGTGA-3′ [si-TTK-1]
amount of TTK transcript (TTK [1]): significantly decreased
cell viability (MTT assay) (LC319 and A549 cells; versus two control siRNAs): reduced significantly
colony numbers (colony-formation assay) (LC319 and A549 cells; versus two control siRNAs): reduced significantly

Compound: 5′-ATCACGGACCAGTACATCT-3′ [si-TTK-2]
amount of TTK transcript (TTK [1]): weaker reduction
growth-suppressive effect (LC319 and A549 cells): modest growth-suppressive effect

phosphorylation of active-rhEGFR by TTK (TTK [4]): not inhibited
Compound: COc1cc2ncnc(Nc3cccc(Cl)c3)c2cc1OC [AG1478, tryphostin 4-(3-chloroanilino)-6,7-dimethoxyquinazoline]
cell morphology (A549 cells [2]): became much larger with multiple nuclei
autophosphorylation of active-rhEGFR on tyrosine [3]: inhibited
autophosphorylation of active-rhEGFR on tyrosine ([3]; listed as AG1378): not detected
phosphorylation of active-rhEGFR by TTK (TTK [4]; listed as AG1378): detected in the presence of recombinant TTK

Compound: GTAACAAGCTCACGCAGTTTT (listed as DNA, chemistry not given here) [RNAi-EGFR (oligo)]
cell morphology (A549 cells [2]): became much larger with multiple nuclei
TTK-induced cell proliferation (HEK293 cells [5]; HEK293 transfectants stably expressing TTK, P=0.0032): significantly reduced
proliferation of HEK293 control cells (HEK293 cells [5]; control cells transfected with mock vector, P=0.2439): scarcely reduced
TTK-induced cell invasion through Matrigel (HEK293 cells [6]; TTK-transfected HEK293 cells, P<0.0001): reduced to near the basal level
Invasion of the control cells through Matrigel (HEK293 cells [6]; mock-transfected HEK293 cells): slightly reduced

Compound: RRRRRRRRRRR-GGG-DVYMIMVKCWMIDADSRPK (An artificially synthesised dominant negative peptide) [11R-EGFR918-936]
cell viability (MTT assay) (A549 cells [7]): significant decreases

Compound: RRRRRRRRRRR-GGG-EFMAELLRYFRPQSKRDII (RRRRRRRRRRRGGGEFMAELLRYFRPQSKRDII) [scramble peptides, Scramble peptides derived from 11R-EGFR937-955, synthesized as a control, reference compound]
cell viability (MTT assay) (A549 cells [7]): no growth-suppressive effect

Compound: RRRRRRRRRRR-GGG-FRELIIEFSKMARDPQRYL (An artificially synthesised dominant negative peptide) [11R-EGFR937-955]
cell viability (MTT assay) (A549 cells [7]): most effective; also recorded: significant decreases

Compound: RRRRRRRRRRR-GGG-ISSILEKGERLPQPPICTI (An artificially synthesised dominant negative peptide) [11R-EGFR899-917]
cell viability (MTT assay) (A549 cells [7]): significant decreases
